According to patent US20130005802A1, “TREATMENT OF WNT/FRIZZLED-RELATED DISEASES” (priority 2009, published 2013):
Like-named read-outs stand apart in the source and are kept apart here.

Key:
[1] = target: Frizzled1-GFP (Rattus norvegicus, UniProt Q08463); experiment: Co-localization of internalized Frizzled1-GFP with β2-adrenergic receptor-RFP or Transferrin; format: cell-based
Description: To remove remaining surface bound Tf, the cells were exposed to unlabeled transferrin (10 mg/mL) for 2 min at room temperature. The cells were then fixed with 4% paraformaldehye, and imaged with a LSM510 confocal microscope (Zeiss).
Many classes of membrane receptors internalize in clathrin coated pits. In particular, β2-adrenergic receptors are prototypical for clathrin-dependent internalization of G protein-coupled receptors (Barak, L. S., et al. Mol Pharmacol 1997, 51, 177-184; Goodman, O. B., Jr., et al. Nature 1996, 383, 447-450, both are incorporated herein by reference in their entireties), and Transferrin is a well-documented standard for clathrin-mediated internalization in general (Mellman, I. Annu Rev Cell Dev Biol 1996, 12, 575-625, incorporated herein by reference). It was examined whether internalized Frizzled1-GFP co-localizes with either β2-adrenergic receptor-RFP or Transferrin in intracellular vesicles. FIG. 6A-6C show confocal images of unstimulated U2OS cells expressing both β2-adrenergic receptor-RFP (β2AR-RFP, FIG. 6A) and Frizzled1 receptors (Fzd1-GFP, FIG. 6B) prior to activation.
The merged image is presented in (FIG. 6L), wherein arrowheads indicate co-localized vesicles.

[2] = test system: LEF/TCF transcription factor reporter (TOPFlash); experiment: TOPFlash reporter assay in HEK293 cells; format: cell-based; conditions: Homo sapiens
Description: To obtain a Frizzled1-GFP stable cell line (Fzd1GFP-U2OS), U2OS cells were transfected with pCS2ratFrizzled1-GFP and pLKO.1 (10:1 ratio by weight), using the Nucleofection transfection protocol from Amaxa, and stable receptor expressing clones were selected using 1.5 μg/mL puromycin in the culture medium. For generating TOPFlash stable cell lines, HEK293 cells were transfected with p8xTOPFlash, the Renilla luciferase plasmid, and pLKO.1 at a ratio by weight of 10:3:1 and stable clones selected using 1 μg/mL puromycin in the growth medium. pLKO.1 was used to confer puromycin resistance to the stable clones.
For the TOPFlash Luciferase assay the TOPFlash stable cells were seeded in 150 μL growing medium/well in 96-well plates at 100% confluency. Fifty microliters of conditioned medium containing the chemical compounds to be tested or DMSO were added to each well. After an 8 hr treatment, the cells were then washed once with PBS, and lysed with 80 μL MPER solution (Pierce, Rockford, Ill.). Thirty microliters of cell lysate were used for measuring luciferase activity in a 96-well plate reader (FluoStar Optima, BMG Labtech, Chicago, Ill.).
LEF/TCF transcription factor reporter (TOPFlash) assay is a general readout for canonical Wnt signaling pathways. […] A Renila luciferase plasmid was also generated to serve as an internal control.
The average TOPFlash reporter activity of Wnt3A plus DMSO treatment was set as 100%, and the relative reporter activity of Wnt3A plus the indicated concentration of niclosmide was calculated and plotted.
The compounds shown in Table 2 were purchased from Sigma-Aldrich (St. Louis, Mo.) or Chembridge (San Diego, Calif.). The activity of each of the compounds as a negative modulator of the Wnt/Frizzled signaling pathway was examined using the Top-flash assay, as described above.

[3] = test system: CRC explants; experiment: MTT assay, CRC explants; format: cell-based; conditions: 72 hr
Description: AsPC-1 tumor cells were cultured with T cells at a 1:5 ratio for 7 days in the presence of MEDI-565 or Cont BiTE (100 ng/mL). On day 7, floating cells were discarded and only adherent AsPC-1 cells were harvested with 0.05% trypsin/EDTA and washed with PBS three times. 1×10^4 AsPC-1 tumor cells were added to each well of 96 well flat bottom plates in 200 μL of complete RPMI1640 medium. The cells were allowed to adhere to the plates overnight at 37° C. (day 0) and were further incubated for 1, 2, 4 or 7 days. 20 μL of 10×MTT (3-[4,5-dimethylthiazol-2-yl]-2,5-diphenyl-tetrazolium bromide, 5 mg/mL) solution was added to each well, and incubated at 37° C. for 2 hr. The adherent cells were lysed with 150 μL of dimethyl sulfoxide (DMSO) and the optical density (OD) at 550 nm was measured.
The cells were allowed to adhere to the plates overnight at 37° C. (day 0). […] Then 20 μL of 10×MTT solution was added to each well and incubated at 37° C. for 2 hr. The adherent cells were lysed with 150 μL of DMSO, and then optical density (OD) at 562 nm was measured. DMSO or culture medium was used as a control.
An MTT assay was performed after 72 hr incubation. After cell lysis with DMSO, the optical density (OD) at 562 nm was measured.

[4] = test system: β-catenin; experiment: Immunohistochemistry of β-catenin in treated tumors; format: in vivo, NOD/SCID mice; conditions: 200 mg/kg, 2 or 3 weeks
Description: Paraffin-embedded specimens were cut into 4 μm-thick of sequential sections. After dewaxing in xylene and rehydrating stepwise in ethanol, sections were subjected to heat-induced antigen retrieval. Endogenous peroxidase activity was blocked with 3% H2O2, and non-specific binding was blocked with non-immune horse sera. Sections were then incubated with primary antibodies overnight at 4C. Anti-β-catenin (sc-65483, Santa Cruz Biotechnology, Inc., Santa Cruz, Calif.) and anti-Dvl-2 (sc-8026, Santa Cruz Biotechnology, Inc., Santa Cruz, Calif.) monoclonal antibodies were used at (1:50) dilution. After rinsing the sections were incubated with the biotinylated secondary antibody (1:200 dilution; Dakopatts, Copenhagen, Denmark) for 30 min at room temperature and then with the avidin-biotin peroxidase complex from the Vector Elite ABC kit (Vector Laboratories, Burlingame, Calif.) according to the manufacturer's instructions. Visualization was achieved using 3,3′-diaminobenzidine tetrahydrochloride and H2O2. Specimens were counterstained with hematoxylin.
NOD/SCID mice were implanted with colorectal cancer explants or cell lines. […] Tumors were excised and fixed with 10% neutralized, buffered formalin. Paraffin-embedded specimens were cut into 4 μm-thick of sequential sections. After dewaxing and rehydration, heat-induced antigen retrieval was performed. […]

Sequence of Frizzled1-GFP (Q08463 69-641): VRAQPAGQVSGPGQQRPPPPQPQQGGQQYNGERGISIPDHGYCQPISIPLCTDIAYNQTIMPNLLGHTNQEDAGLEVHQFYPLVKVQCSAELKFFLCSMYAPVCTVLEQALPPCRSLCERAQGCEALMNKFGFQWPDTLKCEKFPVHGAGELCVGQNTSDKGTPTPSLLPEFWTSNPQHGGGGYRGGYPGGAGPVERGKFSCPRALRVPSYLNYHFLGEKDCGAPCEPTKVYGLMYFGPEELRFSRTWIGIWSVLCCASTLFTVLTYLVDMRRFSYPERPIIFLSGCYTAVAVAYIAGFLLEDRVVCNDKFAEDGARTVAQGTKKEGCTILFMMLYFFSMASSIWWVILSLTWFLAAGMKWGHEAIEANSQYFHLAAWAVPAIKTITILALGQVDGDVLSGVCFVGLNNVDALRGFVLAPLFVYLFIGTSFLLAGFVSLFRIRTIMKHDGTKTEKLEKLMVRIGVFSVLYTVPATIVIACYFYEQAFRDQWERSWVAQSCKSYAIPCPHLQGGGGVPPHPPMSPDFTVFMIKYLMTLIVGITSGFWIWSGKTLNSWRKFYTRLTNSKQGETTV

Structure (SMILES): O=C(Nc1ccc([N+](=O)[O-])cc1Cl)c1cc(Cl)ccc1O [niclosamide]
- co-localization of Fzd1-GFP with β2AR-RFP ([1]; […] niclosamide and 0.1 μM isoproterenol, 2 hr or 6 hr): multiple overlapping intracellular distributions
- co-localization of internalized Transferrin with internalized Frizzled1 ([1]; […] niclosamide, Transferrin 100 μg/mL, 2 hr): significant co-localization
- IC50 ([2]; Wnt3A conditioned medium, read-out: IC50 of inhibition of Wnt3A stimulated TOPFlash reporter activity): 500 ± 50 nM
- IC50 ([2]; read-out: TopFlash assay: IC50): < 1000 nM
- killing of CRC020 explant cells ([3]; 5 μM): killed significantly
- cytotoxicity (MTT, OD 562 nm) in 8 CRC explants ([3]; 0.4, 2, 10 μM): cytotoxic effects
- cytoplasmic expression of β-catenin in tumors vs control [4]: decreased levels
